Assay results reported in publication PMC9841531, “Indole Derivatives as New Structural Class of Potent and Antiproliferative Inhibitors of Monocarboxylate Transporter 1 (MCT1; SLC16A1)” (Journal of Medicinal Chemistry, 2022).

How the values were obtained:
MCT1 = target: T1, MCT1 (Homo sapiens, UniProt P53985); assay: functional 3-BP cell viability assay (MCT1 transport inhibition); format: cell-based; conditions: MCT1-expressing A-549 cells, 50 μM 3-BP, 72 h; read-out: MCT1 transport inhibition IC50 ± SEM
T1 construct: MCT1-expressing A-549 cells[14],[15] were exposed to the MCT1 substrate 3-BP, which becomes influxed by MCT1; endogenous in cells; host or cells: A-549 lung cancer cells (from NCCS, Pune)
T1 sequence (P53985 1-500): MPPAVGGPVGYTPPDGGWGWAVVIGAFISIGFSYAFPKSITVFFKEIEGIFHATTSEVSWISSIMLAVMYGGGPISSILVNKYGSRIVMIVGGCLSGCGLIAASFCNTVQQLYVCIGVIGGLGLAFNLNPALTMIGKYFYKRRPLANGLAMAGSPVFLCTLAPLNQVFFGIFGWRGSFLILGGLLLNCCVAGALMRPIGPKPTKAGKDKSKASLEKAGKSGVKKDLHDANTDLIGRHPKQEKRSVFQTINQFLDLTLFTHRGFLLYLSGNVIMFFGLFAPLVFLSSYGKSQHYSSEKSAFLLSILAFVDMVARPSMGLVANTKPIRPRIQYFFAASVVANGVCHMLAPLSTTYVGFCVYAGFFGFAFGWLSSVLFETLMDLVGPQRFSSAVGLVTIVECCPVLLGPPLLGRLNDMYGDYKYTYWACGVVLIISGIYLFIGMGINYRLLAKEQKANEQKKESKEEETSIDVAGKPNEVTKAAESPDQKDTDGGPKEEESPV
T1 sequence (P35613 140-385 partner limits assumed): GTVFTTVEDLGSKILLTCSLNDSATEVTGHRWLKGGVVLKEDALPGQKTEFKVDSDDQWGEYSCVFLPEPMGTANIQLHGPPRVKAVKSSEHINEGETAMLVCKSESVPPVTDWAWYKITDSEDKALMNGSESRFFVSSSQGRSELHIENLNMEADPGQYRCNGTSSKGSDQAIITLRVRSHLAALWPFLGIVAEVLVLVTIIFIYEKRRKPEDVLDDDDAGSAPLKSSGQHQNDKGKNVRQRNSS
Experimental: The inhibitory activity of indole derivatives against MCT1 was determined by applying a functional 3-bromopyruvate (3-BP) cell viability assay, as described in the literature[20],[39] with minor modifications. In short, MCT1-expressing A-549 cells[14],[15] were exposed to the MCT1 substrate 3-BP, which becomes influxed by MCT1. 3-BP is toxic, leading to decreased cell viability. Functional inhibition of MCT1 results in reduced intracellular 3-BP levels and, thus, enhanced cell viability compared to no inhibition. […] Table 1 provides the half-maximal inhibition concentration (IC50) values of compounds 17–32.
A functional 3-BP cytotoxicity assay was conducted as described in the literature[20],[39] with minor modifications. Dilution series of compounds 17–32 between 1 nM and 1 μM were prepared in DPBS (Cell Clone, Genetix Biotech Asia, New Delhi India), and 10 μL of each concentration was pipetted into a colorless flat-bottom 96-well microplate (SPL Life Sciences, Gyeonggi-do, Republic of Korea). One hundred and eighty microliters of a cell suspension (5000 cells/well) of A-549 cells was added, and subsequently, 10 μL of 3-BP was added at a concentration of 1 mM (final concentration per well: 50 μM). The plate was kept for 72 h at 37 °C under a 5% CO2-humidified atmosphere. Cell viability was determined as described before[43] by adding 20 μL of a 5 mg/mL solution of MTT to each well and further incubation for 1 h. Eventually, the supernatant was removed and 100 μL of DMSO was added to each well. The absorbance was spectrophotometrically determined at 570 nm using a SpectraMax iD3 multi-mode microplate reader (Molecular Devices, San Jose, CA) with a background correction (690 nm). The determined absorbance values were correlated to the logarithmic concentrations of compounds 17–32, and IC50 values were calculated applying nonlinear regression using GraphPad Prism (version 8.4.0., San Diego, CA).

MCF-7 cancer cells = assay: MTT-based cell viability assay, MCF-7; conditions: Homo sapiens, MCF7, 72 h, read-out: MCF-7 cancer cell toxicity GI50 ± SEM
From the text: MCT1-expressing cells have an extraordinary energy demand and rely on pyruvate metabolism, through either lactate conversion or pyruvate consumption. Inhibition of MCT1 blocks lactate and pyruvate influx into cancer cells, which prevents their processing in the TCA cycle. Over time, the viability of cells exposed to an MCT1 inhibitor is impaired due to pyruvate deprivation, which is compensated by upregulating glucose metabolism—leading to an overconsumption of glucose. To confirm the antiproliferative nature of the indole derivatives, we investigated the compounds toward the MCT1-expressing cell lines A-549[14],[15] and MCF-7.[16] Cancer cell viability was assessed via a 3-(4,5-dimethylthiazol-2-yl)-2,5-diphenyltetrazolium bromide (MTT) assay, as reported earlier.[43]
To determine the growth inhibitory potential of compounds 17–32, […] of each compound either at concentrations between 1 and 100 μM (A-549 or MCF-7) or at 10 and 50 μM (NIH/3T3) was pipetted into colorless flat-bottom 96-well microplates. Thereafter, 180 μL of a cell suspension (5000 cells/well) of either A-549, MCF-7, or NIH/3T3 cells was added and subsequently kept for 72 h at 37 °C under a 5% CO2-humidified atmosphere. The cell viability as well as the GI50 values were determined as described above.[43]

[1] = tested on: ABCB1-expressing A2780/ADR cells; assay: MTT-based efficacy (MDR-reversal) assay, 33 in combination with test compound, A2780/ADR; format: cell-based; conditions: for sensitization of ABCB1-expressing A2780/ADR cells against 33: 5 μM; for EC50: from resistance factors of 33 (A2780/ADR vs A2780) against compound concentration, read-out: half-maximal reversal concentration (EC50)
Experimental: This sensitization is indicated by a shift of the concentration-effect curve of compound 33 from the right (=high concentrations of 33 needed to induce A2780/ADR cell death) to the left (=lower concentrations of 33 needed to induce A2780/ADR cell death). The concentration-effect curve of compound 33 in combination with 5 μM of either compound 24 or 30 resembles the concentration-effect curve of the sensitive cell line A2780. […] Thus, their potentiating effect with respect to the antiproliferative agent 33 against ABCB1-expressing A2780/ADR cells is due to the inhibition of ABCB1. Therefore, compounds 24 and 30 were dually effective against MCT1- and ABCB1-expressing cells (Table 5).
An MDR-reversal assay[2],[55]−[59] was used to investigate the ability to reverse ABCB1-mediated MDR in A2780/ADR cells toward the cytotoxic ABCB1 substrate 33. […] A dilution series of 33 at concentrations between 0.1 μM and 100 μM was generated, and 20 μL of each concentration was transferred onto the plates (final concentration: 0.01–10 μM). The plates were incubated for 72 h at 37 °C and a 5% CO2-humidified atmosphere, before subsequent processing with the regular MTT assay as described above. The observed effects of compounds 24 and 30 were compared to the effect of 33 alone on A2780/ADR cells as well as its sensitive counterpart A2780 (∼10,000 cells/well).

COC(=O)/C(C#N)=C/c1cn(CC(=O)Nc2ccc(C)cn2)c2ccccc12 [Compound 30, Methyl-2-cyano-3-(1-(2-((5-methylpyridin-2-yl)amino)-2-oxoethyl)-1H-indol-3-yl) Acrylate]
IC50 (MCT1): 82.3 ± 4.4 nM | GI50 (MCF-7 cancer cells): 9120 ± 220 nM | sensitization of ABCB1-expressing A2780/ADR cells against 33 [1]: completely sensitized | EC50 [1]: 1220 ± 10 nM

COC(=O)/C(C#N)=C/c1cn(CC(=O)Nc2ccc(OC)cc2)c2ccccc12 [Compound 24, Methyl-2-cyano-3-(1-(2-((4-methoxyphenyl)amino)-2-oxoethyl)-1H-indol-3-yl) Acrylate]
IC50 (MCT1): 81 ± 4 nM | GI50 (MCF-7 cancer cells): 15100 ± 400 nM | sensitization of ABCB1-expressing A2780/ADR cells against 33 [1]: completely sensitized | EC50 [1]: 793 ± 39 nM
